Patent US20110172182A1, “Carboxyethylated Cyclodextrin Polysulfates Useful As Medicaments” (ARCARIOS B.V., priority 2008, published 2011)
One block for each substance: values may come before it.

Key:
[1] = tested on: healthy donor thrombocytes; experiment: Platelet activation (CD62p, flow cytometry) by HIT patient anti-heparin/PF4 antibodies; format: cell-based, human; conditions: for ratio: % CD62p+ (with substance)/% CD62p+ (without) / ΔCD62p+ %: percentage increases in CD62p positive platelets: 0.3 IU heparin or 5 μg/ml polysaccharide
Experimental: The activation of healthy donor thrombocytes by HIT patient anti-heparin/PF4 antibodies in the presence of heparin and the differently sulfated forms of β-cyclodextrin was tested. […] The expression of CD62p by the activated platelets was assayed by means of flow cytometry with a FC500 analyzer (available from Beckman Coulter, Belgium). Platelet-rich plasma solution (PRP) was prepared by slow centrifugation (10 minutes at 180 g) of fresh citrate anti-coagulated blood (1:9 v/v, 0.129 mol/L or 3.8% trisodium citrate buffer), obtained from normal donors. HIT Ab positive plasma samples from patients and HIT Ab negative control plasma from healthy donors were prepared by double centrifugation (15 minutes at 2230 rpm) of fresh citrate anti-coagulated blood. 70 μl of PRP was incubated with 20 μL of HIT Ab containing plasma optionally in the presence of heparin (0.3 IU/ml) or the relevant β-cyclodextrin derivative (5 μg/ml). Experiments with each HIT Ab positive plasma sample were repeated independently using thrombocytes of 2 donors (A and B), to avoid the possibility of non-reactive platelets.
Following the initial 40 minutes incubation step, 5 μl of the platelets solution was transferred to a fresh tube with 85 μL phosphate buffered saline (PBS) containing 1% bovine serum albumin (BSA) and 0.1% Na-azide, 5 μl (0.25 μg) monoclonal anti-CD41 antibodies (Ab) (phycoerythrin-Texas Red Energy coupled dye (ECD)-conjugated, Beckman Coulter) and 5 μl (0.125 μg) of anti-CD62p Ab (phycoerythrin (PE)-conjugated, Beckman Coulter). CD41 (Glycoprotein […]) is a selective marker of platelets and platelet precursors. CD62p is a constituent of alpha granules and is released to the platelet surface on activation.
After 20 minutes of incubation at room temperature, the total volume of the platelet suspension was adjusted to 600 μL buffered solution and evaluated without delay by flow cytometry. 20,000 events per sample were analysed and the platelet populations were gated by side scatter characteristics and the platelet marker CD41. The fraction of activated platelets among the total platelet population was determined and relative CD62p ratios to the internal controls were calculated. [ratio: % CD62p^+ (0.3 IU Heparine or 5 μg/ml β-cyclodextrin derivative)/% CD62p^+ (0 IU Heparine or 0 μg/ml β-cyclodextrin derivative)]. Test results for the heparin treated platelets were evaluated by the scoring system described in Thromb. Haemost. (1999) 82:1255-1259. Control tests were scored positive when the calculated ratios of at least 2 donors were more then 2, based on previously obtained results with normal individuals. To evaluate the potential of the different β-cyclodextrin derivatives to induce platelet activation, both the percentages and ratios of CD62p^+ platelets after incubation with the respective β-cyclodextrin were statistically compared to the percentage and the ratio of CD62p^+ platelets after heparin incubation.

normal pooled plasma = experiment: Blood coagulation activities (aPTT, PT, fibrinogen) in normal pooled plasma; set-up: species or system human; conditions: after incubation with 50 or 100 μg/ml
Experimental: MA-CDPS, HP-CDPS, CE-CDPS and CDPS (as defined in examples 3-4 and characterised in table 1) were prepared as buffered solutions at various concentrations. The polysaccharides were incubated with normal pooled plasma prepared out of 40 healthy volunteers and analyzed for their effects on activated partial thromboplastin time (aPTT), prothrombin time (PT) and fibrinogen levels on a STA Compact® coagulation analyzer (available from Diagnostica Stago, Asnieres, France) according to the manufacturers instructions.

C57BI/6 male mice = experiment: Collagenase-induced knee osteoarthritis in mice, histopathology; format: in vivo
Experimental: Knee osteoarthritis was induced by injecting the right knees of adult (10 weeks) C57BI/6 male mice with 10 μl of a 2 U/μl collagenase type VII (Sigma C-9572, available from Sigma-Aldrich Belgium) solution. The left knee of these animals was injected with 10 μl PBS and served as a control. Two groups of each 8 mice were randomized on weight, the first group was injected subcutaneously once weekly, with 1 mg/kg of the CE-CDPS of example 3, the second group was treated with saline. Treatment was initiated three days after the mice received their intra-articular injection. The animals were fed a standard diet with tap water ad libitum and their weight was recorded twice a week. The mice were sacrificed three weeks after induction of knee osteoarthritis and the liver, kidneys and knee joints were fixed immediately in 2% neutral buffered paraformaldehyde (Fluka 76240, available from Sigma-Aldrich Belgium).
After fixation, knee joints were decalcified in 0.5 M EDTA in PBS and embedded in paraffin. 5μ tissue sections were cut and stained with haematoxylin and eosin for an analysis of the general morphology or with safranin-O for an assessment of proteoglycan content. Each 100 μm, 3 sections of the joint were evaluated.
Stained slides were submitted for evaluation. The following parameters were evaluated: synovial inflammation, fibrosis, osteophytes and erosion of cartilage. Synovial inflammation was graded from 0 to +3 as follows: 0 no changes from normal; +1 mild changes; +2 moderate changes; and +3 severe changes.
Fibrosis was scored as follows: 0 no changes from normal; +1 fibrosis without metaplasia; +2 fibrosis associated with chondroplasia; +3 fibrosis associated with metaplastic bone. Osteophytes were graded from 0 to +4 referring to the amount of osteophytes observed, with a maximum score of 1 per compartment.
Cartilage erosion was graded from 0 to +3 as follows: 0 no changes from normal; +1 only superficial erosion; +2 loss of proteoglycan in one compartment; and +3 loss of proteoglycan in different compartments. In this scoring system the femoral/tibial junction as a whole was taken in consideration by 2 independent investigators.

[2] = HIT ab plasma pat1, platelet donor dA
[3] = HIT ab plasma pat1, platelet donor dB
[4] = HIT ab plasma pat2, platelet donor dA
[5] = HIT ab plasma pat2, platelet donor dB
[6] = HIT ab plasma pat3, platelet donor dA
[7] = HIT ab plasma pat3, platelet donor dB
[8] = HIT ab plasma pat4, platelet donor dA
[9] = HIT ab plasma pat4, platelet donor dB
[10] = in the presence of plasma samples of individuals that had developed HIT Ab
[11] = 1 mg/kg subcutaneously once weekly, OA knees

Substance: heparin
ratio: % CD62p+ (with substance)/% CD62p+ (without) [1, 2]: 4.2
ΔCD62p+ %: percentage increases in CD62p positive platelets [1, 2]: 45.5%
ratio: % CD62p+ (with substance)/% CD62p+ (without) [1, 3]: 2.2
ΔCD62p+ %: percentage increases in CD62p positive platelets [1, 3]: 14.3%
ratio: % CD62p+ (with substance)/% CD62p+ (without) [1, 4]: 2.8
ΔCD62p+ %: percentage increases in CD62p positive platelets [1, 4]: 45.6%
ratio: % CD62p+ (with substance)/% CD62p+ (without) [1, 5]: 3.9
ΔCD62p+ %: percentage increases in CD62p positive platelets [1, 5]: 15.1%
ratio: % CD62p+ (with substance)/% CD62p+ (without) [1, 6]: 4.3
ΔCD62p+ %: percentage increases in CD62p positive platelets [1, 6]: 60.3%
ratio: % CD62p+ (with substance)/% CD62p+ (without) [1, 7]: 8.2
ΔCD62p+ %: percentage increases in CD62p positive platelets [1, 7]: 42.3%
ratio: % CD62p+ (with substance)/% CD62p+ (without) [1, 8]: 2.7
ΔCD62p+ %: percentage increases in CD62p positive platelets [1, 8]: 34.8%
ratio: % CD62p+ (with substance)/% CD62p+ (without) [1, 9]: 2.8
ΔCD62p+ %: percentage increases in CD62p positive platelets [1, 9]: 56.4%
platelet heparin activation ratios % CD62p+ (0.3 IU heparin)/% CD62p+ (0 IU heparin) ([1]; all HIT Ab positive plasma samples, the two donors): above 2
platelet activation ([1]; in the absence of patient's HIT Ab): not activated

platelet activation [1, 10]: induced platelet activation
Substance: Sulfated (2-hydroxypropyl)-β-cyclodextrin [HP-CDPS]
fibrinogen concentrations (normal pooled plasma): Minor decreases
ratio: % CD62p+ (with substance)/% CD62p+ (without) [1, 2]: 4.9
ΔCD62p+ %: percentage increases in CD62p positive platelets [1, 2]: 67.6%
ratio: % CD62p+ (with substance)/% CD62p+ (without) [1, 3]: 5.1
ΔCD62p+ %: percentage increases in CD62p positive platelets [1, 3]: 53.0%
ratio: % CD62p+ (with substance)/% CD62p+ (without) [1, 4]: 1.0
ΔCD62p+ %: percentage increases in CD62p positive platelets [1, 4]: 0.1%
ratio: % CD62p+ (with substance)/% CD62p+ (without) [1, 5]: 1.1
ΔCD62p+ %: percentage increases in CD62p positive platelets [1, 5]: 1.2%
ratio: % CD62p+ (with substance)/% CD62p+ (without) [1, 6]: 2.1
ΔCD62p+ %: percentage increases in CD62p positive platelets [1, 6]: 23.3%
ratio: % CD62p+ (with substance)/% CD62p+ (without) [1, 7]: 4.7
ΔCD62p+ %: percentage increases in CD62p positive platelets [1, 7]: 17.1%
ratio: % CD62p+ (with substance)/% CD62p+ (without) [1, 8]: 4.6
ΔCD62p+ %: percentage increases in CD62p positive platelets [1, 8]: 63.2%
ratio: % CD62p+ (with substance)/% CD62p+ (without) [1, 9]: 2.8
ΔCD62p+ %: percentage increases in CD62p positive platelets [1, 9]: 60.7%

platelet activation [1, 10]: do not significantly activate platelets
cross-reactivity with the heparin/PF4 antibodies ([1]; paired analysis versus heparin, ratios and percentages of CD62p positive cells): no cross-reactivity
weight of the animals (C57BI/6 male mice; 1 mg/kg subcutaneously once weekly, three weeks): did not affect
Substance: Sulfated (2-carboxyethyl)-β-cyclodextrin [CE-CDPS]
fibrinogen concentrations (normal pooled plasma): Minor decreases
ratio: % CD62p+ (with substance)/% CD62p+ (without) [1, 2]: 1.8
ΔCD62p+ %: percentage increases in CD62p positive platelets [1, 2]: 13.9%
ratio: % CD62p+ (with substance)/% CD62p+ (without) [1, 3]: 2.2
ΔCD62p+ %: percentage increases in CD62p positive platelets [1, 3]: 14.4%
ratio: % CD62p+ (with substance)/% CD62p+ (without) [1, 4]: 1.1
ΔCD62p+ %: percentage increases in CD62p positive platelets [1, 4]: 2.4%
ratio: % CD62p+ (with substance)/% CD62p+ (without) [1, 5]: 1.2
ΔCD62p+ %: percentage increases in CD62p positive platelets [1, 5]: 1.1%
ratio: % CD62p+ (with substance)/% CD62p+ (without) [1, 6]: 1.4
ΔCD62p+ %: percentage increases in CD62p positive platelets [1, 6]: 7.9%
ratio: % CD62p+ (with substance)/% CD62p+ (without) [1, 7]: 2.7
ΔCD62p+ %: percentage increases in CD62p positive platelets [1, 7]: 10.2%
ratio: % CD62p+ (with substance)/% CD62p+ (without) [1, 8]: 2.2
ΔCD62p+ %: percentage increases in CD62p positive platelets [1, 8]: 22.9%
ratio: % CD62p+ (with substance)/% CD62p+ (without) [1, 9]: 2.4
ΔCD62p+ %: percentage increases in CD62p positive platelets [1, 9]: 45.0%
osteophyte growth (C57BI/6 male mice; [11]): not inhibited
pannus formation (C57BI/6 male mice; [11]): not inhibited
synovial inflammation (C57BI/6 male mice; [11]): not inhibited
overall cartilage damage (Safranine O staining) (C57BI/6 male mice; 1 mg/kg subcutaneously once weekly, versus PBS-treated): reduced
cartilage proteoglycan depletion in osteoarthritis knee joints (C57BI/6 male mice; collagenase-induced knee-osteoarthritis in mice): prevented

platelet activation [1, 10]: induced platelet activation
Substance: Sulfated 6-monoamino-6-monodeoxy β-cyclodextrin [MA-CDPS]
fibrinogen concentrations (normal pooled plasma): Minor decreases
ratio: % CD62p+ (with substance)/% CD62p+ (without) [1, 2]: 5.2
ΔCD62p+ %: percentage increases in CD62p positive platelets [1, 2]: 74.8%
ratio: % CD62p+ (with substance)/% CD62p+ (without) [1, 3]: 5.5
ΔCD62p+ %: percentage increases in CD62p positive platelets [1, 3]: 69.9%
ratio: % CD62p+ (with substance)/% CD62p+ (without) [1, 4]: 1.4
ΔCD62p+ %: percentage increases in CD62p positive platelets [1, 4]: 9.6%
ratio: % CD62p+ (with substance)/% CD62p+ (without) [1, 5]: 3.5
ΔCD62p+ %: percentage increases in CD62p positive platelets [1, 5]: 17.4%
ratio: % CD62p+ (with substance)/% CD62p+ (without) [1, 6]: 1.9
ΔCD62p+ %: percentage increases in CD62p positive platelets [1, 6]: 16.7%
ratio: % CD62p+ (with substance)/% CD62p+ (without) [1, 7]: 8.2
ΔCD62p+ %: percentage increases in CD62p positive platelets [1, 7]: 32.6%
ratio: % CD62p+ (with substance)/% CD62p+ (without) [1, 8]: 3.5
ΔCD62p+ %: percentage increases in CD62p positive platelets [1, 8]: 51.1%
ratio: % CD62p+ (with substance)/% CD62p+ (without) [1, 9]: 3.1
ΔCD62p+ %: percentage increases in CD62p positive platelets [1, 9]: 63.6%
